Data on 13 molecules can be found in ChEMBL document CHEMBL3091307, “Structure-anti-MRSA activity relationship of macrocyclic bis(bibenzyl) derivatives” (2013).

≈ marks a conversion by molar mass, not a printed value. Calls of active or inactive are those of the source.

Assay [1] relates to Staphylococcus aureus. Put plainly: Antibacterial activity against methicillin-resistant Staphylococcus aureus clinical isolate OM481 by liquid microdilution method. It counts as functional.
The subject of assay [2] is Staphylococcus aureus. Put plainly: Antibacterial activity against methicillin-resistant Staphylococcus aureus clinical isolate OM584 by liquid microdilution method. It counts as functional. Background: Dilution methods test growth across graded concentrations, often in twofold steps.
Assay [3] concerns Staphylococcus aureus. Kind of assay: Antibacterial activity against methicillin-resistant Staphylococcus aureus clinical isolate N315 by liquid microdilution method. It counts as functional.
Assay [4] relates to Staphylococcus aureus. Kind of assay: Bactericidal activity against methicillin-resistant Staphylococcus aureus at 4 times MIC by cell survival assay. It is filed as functional, organism-based.
Assay [5] concerns Staphylococcus aureus. Put plainly: Bacteriostatic activity against methicillin-resistant Staphylococcus aureus at 4 times MIC by cell survival assay. It is filed as functional, organism-based.
Assay [6] relates to Staphylococcus aureus. Put plainly: Antibacterial activity against 2-phenoxyphenol and trichlosan-resistant Staphylococcus aureus clinical isolate N315 by liquid microdilution method. It counts as functional.
Assay [7] concerns Staphylococcus aureus. Kind of assay: Antibacterial activity against methicillin-resistant Staphylococcus aureus at 4 times MIC by cell survival assay. It is filed as functional, organism-based.

As a reminder, the MIC is the smallest concentration in the dilution series that meets the test's criterion for growth inhibition. Lower therefore signals inhibition by little substance. For the molecule `Oc1ccc2c(c1)CCc1ccc(O)c(c1)Oc1ccc(cc1)CCc1ccc-2c(O)c1`, the MIC in assay [1], in assay [2] and in assay [3] was 4 µg/mL (≈ 9.42 µM) each time.

Take `Oc1ccc2c(c1)CCc1ccc(cc1)Oc1cc(ccc1F)CCc1ccc-2c(O)c1`: the results for the MIC in assay [1], in assay [2] and in assay [3] were 1 µg/mL (≈ 2.34 µM), 2 µg/mL (≈ 4.69 µM) and 1 µg/mL (≈ 2.34 µM), respectively.

With `Oc1ccc2c(c1)CCc1ccc(c(O)c1)Oc1cc(ccc1O)CCc1ccc-2c(O)c1`, the figures for the MIC in assay [1], in assay [2] and in assay [3] were 16 µg/mL (≈ 36.3 µM), 16 µg/mL (≈ 36.3 µM) and 8 µg/mL (≈ 18.2 µM), respectively.

Regarding `CC(=O)NC[C@H]1CN(c2ccc(N3CCOCC3)c(F)c2)C(=O)O1` [LINEZOLID], the MIC in assay [1] and in assay [2] was 1 µg/mL (≈ 2.96 µM) in each case.

`Oc1ccc2cc1Oc1ccc(cc1)CCc1ccc(O)c(c1)Oc1ccc(cc1)CC2`: the MIC in assay [1], in assay [2] and in assay [3] was over 100 µg/mL in each case.

Consider `Oc1ccccc1Oc1ccccc1`, for which the outcome in assay [4] was inactive. The minimum inhibitory concentration (MIC) in assay [1], in assay [2] and in assay [3] was 8 µg/mL (≈ 43 µM) each time. Further, the result in assay [5] was Active.

As for `Oc1ccc2c(c1)CCc1ccc(cc1O)Oc1cc(ccc1O)CCc1ccc-2c(O)c1`, the MIC in assay [1], in assay [2] and in assay [3] was 8 µg/mL (≈ 18.2 µM) throughout.

For the molecule `Oc1ccc2c(c1)CCc1ccc(c(F)c1)Oc1cc(ccc1O)CCc1ccc-2c(O)c1`, the MIC was found to be 8 µg/mL (≈ 18.1 µM) in assay [1], 8 µg/mL (≈ 18.1 µM) in assay [2] and 4 µg/mL (≈ 9.04 µM) in assay [3].

On to `Oc1ccc2cc1Oc1ccc(cc1)CCc1ccccc1-c1ccc(cc1O)CC2`, for which the MIC in assay [6], in assay [1], in assay [2] and in assay [3] was 1 µg/mL (≈ 2.45 µM) in each case.

On to `Oc1ccc2c(c1)CCc1ccc(c(O)c1)-c1ccc(O)c(c1)CCc1ccc-2c(O)c1`, for which the MIC in assay [1], in assay [2] and in assay [3] was 32 µg/mL (≈ 75.4 µM) in each case.

With `Oc1ccc2c(c1)CCc1ccc(cc1)Oc1cccc(c1)CCc1ccc-2c(O)c1`, the MIC in assay [6], in assay [1], in assay [2] and in assay [3] was 1 µg/mL (≈ 2.45 µM) each time.

As for `Oc1ccc2c(c1)CCc1ccc(cc1)Oc1cc(ccc1O)CCc1ccc-2c(O)c1` [RICCARDI C], the outcome in assay [7] was Active. Moreover, the MIC in assay [6], in assay [1], in assay [2] and in assay [3] was 2 µg/mL (≈ 4.71 µM) throughout.

`Oc1ccc2c(c1)CCc1ccc(cc1O)Oc1cccc(c1)CCc1ccc-2c(O)c1`: the MIC in assay [1], in assay [2] and in assay [3] was 4 µg/mL (≈ 9.42 µM) in each case.
